The experiment concerns P388. Put plainly: Cytotoxicity against mouse P388 cells by microculture tetrazolium assay. In kind it is functional, cell-based.

Values after ≈ are worked out from the molar mass of the structure shown.

Turning to `CC(C)=CCC/C(C)=C/Cc1c2c(c(O)c3c(=O)c4c(oc13)-c1c(O)cc(O)c3c1C(C4)C(C)(C)O3)C=CC(C)(C)O2` (configuration not stated) [ARTOINDONESIANIN A], the IC50 (commonly the concentration that gives 50% inhibition) was 21 µg/mL (≈ 36.8 µM).
In turn, `COc1cc2oc3c(c(=O)c2c(O)c1/C=C/C(C)C)CC(C(C)(C)OO)Oc1cc(O)ccc1-3` (configuration not stated) [ARTOINDONESIANIN B] registered an IC50 of 3.9 µg/mL (≈ 8.32 µM).

Source of the values: ChEMBL document CHEMBL1141828, “Artoindonesianins A and B, two new prenylated flavones from the root of Artocarpus champeden” (J Nat Prod, 1999).
